Measurements published in patent publication US6489166B1, “Plant regeneration method for mature seed-derived callus in zoysiagrass” (Korea Kumho Petrochemical Co., Ltd., priority 2001, dated 2002).
Where two headings read alike, the source gives them in different places.

Experiments:
[1] = test system: Type I calli derived from mature seeds of zoysiagrass; settings: for Calli with green shoot (%) / Number of shoots per callus lump / Shoots over 2 mm (%): Type I calli, 2 weeks
Protocol: To examine the effects of various sugars on the plant regeneration efficiency from calli, the type I calli were dissected into lumps with a diameter of 2 mm and grown on the MS media containing 1 mg/L TDZ and 3% (w/v) fructose, galactose, glucose, maltose, or sucrose. For each treatment, 3 MS plates, each with 25 calli, were used. […] To determine the optimal concentration of maltose, the type I calli were grown on the MS media supplemented with various concentrations of maltose at 1.5, 3.0, 4.5, 6.0, 7.5, or 9%.
The effects of different sugars on the plant regeneration efficiency from calli were examined using the shoot induction media (SIM) supplemented with different sugars.
Type I calli were cultured on the MS medium containing 1 mg/L TDZ for 2 weeks. Each value in the second column represents a mean calculated from 25 calli per each experiment. Each value in the third column represents a mean calculated from 10 calli for each experiment.
Type I calli were cultured on the MS medium containing 1 mg/L TDZ and various concentrations of maltose for 2 weeks.

[2] = test system: callus derived from mature seeds of zoysiagrass; test: Morphology (types I-IV) of callus induced with growth hormone combinations; format: cell-based, Zoysia japonica Steud.; settings: 6-benzylaminopurine 0 mg/L, MS, 3 months
Protocol: (§1) To examine the effects of plant growth hormones on the callus induction efficiency and the callus morphology, sterilized seeds were placed and cultured on the MS plates supplemented with 4 mg/L thiamine-HCl and 100 mg/L α-ketoglutaric acid. The MS plates, each with a diameter of 9 cm, were further supplemented with various amounts of 2,4-dichlorophenoxyacetic acid (0, 1, 2, 4, 8 mg/L) and 6-benzylaminopurine (0, 0.02, 0.2, 2, 4 mg/L). One hundred seeds were grown per each MS plate, and 3 plates were used for each treatment group. After three months, the number of seeds from which calli had been induced was counted. For the morphological classification of calli, calli were induced and grown on the MS media supplemented with 6-benzylaminopurine and 2,4-dichlorophenoxyacetic acid under the identical condition as described above for three months. They could be morphologically classified into four distinct groups (I-IV), based on the callus morphology, color, and rigidity.
Calli induced on the MS media supplemented with different concentration combinations of 2,4-dichlorophenoxyacetic acid and 6-benzylaminopurine were morphologically and physiologically analysed. Four distinct callus types (types I to IV) could be apparently discriminated by callus color, morphology, and rigidity (FIG. 1).
Seeds were plated on the MS media containing 4 mg/L thiamine-HCl, 100 mg/L α-ketoglutaric acid, and different concentration combinations of 2,4-dichlorophenoxyacetic acid and 6-benzylaminopurine for 3 months. Callus morphologies were rated by; type I: with yellow and differentiated structure, type II: with white, non-friable, and compact structure, type III: with yellow, friable, and compact structure, Type IV: with whitish yellow, friable, soft, and watery appearance. Type I˜III represents the sum of the numbers of types I to III.

[3] = test system: mature seeds of zoysiagrass; test: Callus induction from mature seeds on MS media with growth hormone combinations; format: cell-based, Zoysia japonica Steud.; settings: for Callus producing seeds (%) / Number of callus producing seeds: MS, 3 months
Protocol: Seeds of zoysiagrass (Zoysia japonica Steud.), from which seed coats were first removed, were sterilized by soaking in 70% ethyl alcohol for 1 min and subsequently in 5% sodium hypochlorite solution supplemented with 0.001% (v/v) Tween 20 for 15 min. The sterilized seeds were then thoroughly rinsed with sterilized distilled water 3-4 times. They were then germinated and grown for 2 weeks on the N6 media (pH 5.8) containing 1 mg/L 2,4-dichlorophenoxyacetic acid, 3% sucrose, and 0.2% gelite and subject to callus induction. The callus induction and growth was carried out in a controlled environment culture room set at 26° C. and 70% humidity in the dark.
as §1
To investigate the effects of plant growth hormones on the callus induction, the mature seed-derived callus induction rates were measured on the MS media supplemented with different amounts of 2,4-dichlorophenoxyacetic acid and 6-benzylaminopurine after grown for three months.
Seeds were plated and grown on the MS media containing 4 mg/L thiamine-HCl, 100 mg/L α-ketoglutaric acid, and different concentration combinations of 2,4-dichlorophenoxyacetic acid and 6-benzylaminopurine for 3 months.

[4] = test system: Type I calli derived from mature seeds of zoysiagrass; test: Effects of cytokinins on shoot induction from callus; format: cell-based, Zoysia japonica Steud.; settings: for Number of shoots over 5 mm / Number of shoots per callus lump: Type I calli, MS with 30 g/L maltose, 2 weeks
Protocol: The media were additionally supplemented with 1 or 4 mg/L of kinetin, 6-benzylaminopurine, or TDZ. Each treatment consisted of 3 MS plates, each with 16 calli.

[5] = test system: Type I calli derived from mature seeds of zoysiagrass; test: as above; format: cell-based, Zoysia japonica Steud.; settings: 44 Type I calli tested, MS with 30 g/L maltose, 2 weeks
[6] = maltose 15 g/L, MS with 1 mg/L TDZ
[7] = maltose 30 g/L, MS with 1 mg/L TDZ
[8] = maltose 45 g/L, MS with 1 mg/L TDZ
[9] = maltose 60 g/L, MS with 1 mg/L TDZ
[10] = maltose 75 g/L, MS with 1 mg/L TDZ
[11] = maltose 90 g/L, MS with 1 mg/L TDZ
[12] = sugar 30 g/L, MS medium with 1 mg/L TDZ
[13] = 2,4-dichlorophenoxyacetic acid 1 mg/L
[14] = 2,4-dichlorophenoxyacetic acid 2 mg/L
[15] = 2,4-dichlorophenoxyacetic acid 4 mg/L
[16] = 2,4-dichlorophenoxyacetic acid 8 mg/L
[17] = 2,4-dichlorophenoxyacetic acid 1 mg/L, 6-benzylaminopurine 0 mg/L
[18] = 2,4-dichlorophenoxyacetic acid 2 mg/L, 6-benzylaminopurine 0 mg/L
[19] = 2,4-dichlorophenoxyacetic acid 4 mg/L, 6-benzylaminopurine 0 mg/L
[20] = 2,4-dichlorophenoxyacetic acid 8 mg/L, 6-benzylaminopurine 0 mg/L
[21] = 2,4-dichlorophenoxyacetic acid 0 mg/L, 6-benzylaminopurine 0.02 mg/L
[22] = 2,4-dichlorophenoxyacetic acid 0 mg/L, 6-benzylaminopurine 0.2 mg/L
[23] = 2,4-dichlorophenoxyacetic acid 0 mg/L, 6-benzylaminopurine 2 mg/L
[24] = 2,4-dichlorophenoxyacetic acid 0 mg/L, 6-benzylaminopurine 4 mg/L

For `OC[C@H]1O[C@H](O[C@H]2[C@H](O)[C@@H](O)C(O)O[C@@H]2CO)[C@H](O)[C@@H](O)[C@@H]1O` (mixture of isomers) [Maltose, maltose], the “Colour of leaf and stem margins of regenerated plants” value [1] was “exhibited color caused by accumulation of anthocyanin-related pigments”, the “Physical stress on cultured cells (anthocyanin accumulation in regenerated shoots)” value [1] was “confers a physical stress on the cultured cells” and the “Calli with green shoot (%)” value [1, 6] was 37.3%. For the same molecule, the “Number of shoots per callus lump” value [1, 6] was 9.9 ± 0.1, the “Shoots over 2 mm (%)” value [1, 6] was 45.2 ± 3.4% and the “Calli with green shoot (%)” value [1, 7] was 36.0%. The “Number of shoots per callus lump” value [1, 7] was 12.9 ± 1.2, the “Shoots over 2 mm (%)” value [1, 7] was 51.4 ± 3.9% and the “Calli with green shoot (%)” value [1, 8] was 32.0%. For the same molecule, the “Number of shoots per callus lump” value [1, 8] was 10.2 ± 1.3, the “Shoots over 2 mm (%)” value [1, 8] was 32.1 ± 3.6% and the “Calli with green shoot (%)” value [1, 9] was 29.3%. The “Number of shoots per callus lump” value [1, 9] was 4.9 ± 0.6, the “Shoots over 2 mm (%)” value [1, 9] was 14.5 ± 5.5% and the “Calli with green shoot (%)” value [1, 10] was 30.7%. The “Number of shoots per callus lump” value [1, 10] was 8.3 ± 0.9, the “Shoots over 2 mm (%)” value [1, 10] was 27.3 ± 4.0% and the “Calli with green shoot (%)” value [1, 11] was 28.0%. For the same molecule, the “Number of shoots per callus lump” value [1, 11] was 2.5 ± 0.3, the “Shoots over 2 mm (%)” value [1, 11] was 6.7 ± 0.2% and the “Calli with green shoot (%)” value [1, 12] was 33.3 ± 2.7%. The “Number of shoots per callus lump” value [1, 12] was 9.4 ± 0.3 and the “Shoots over 2 mm (%)” value [1, 12] was 46.4 ± 5.0%.
`O=C(O)COc1ccc(Cl)cc1Cl` [2,4-dichlorophenoxyacetic acid] was tested, and the “Calli Type I˜III (sum of types I to III) (%)” value (“Calli Type I˜III … (%)” below) [2, 13] was 8.5%, the “Calli showing Type I morphology (%)” value [2, 13] was 4.3% and the “Calli showing Type II morphology (%)” value [2, 13] was 0 (0) %. For the same molecule, the “Calli showing Type III morphology (%)” value [2, 13] was 4.3%, the “Calli showing Type IV morphology (%)” value [2, 13] was 91.5% and the “Number of calli Type I˜III (sum of types I to III)” value (shortened to “Number of calli Type I˜III”) [2, 13] was 4. For the same molecule, the “Number of calli showing Type I morphology” value [2, 13] was 2, the “Number of calli showing Type II morphology” value [2, 13] was 0 (0) and the “Number of calli showing Type III morphology” value [2, 13] was 2. For the same molecule, the “Number of calli showing Type IV morphology” value [2, 13] was 43, the “Calli Type I˜III … (%)” value [2, 14] was 5.6% and the “Calli showing Type I morphology (%)” value [2, 14] was 0 (0) %. The “Calli showing Type II morphology (%)” value [2, 14] was 0 (0) %, the “Calli showing Type III morphology (%)” value [2, 14] was 5.6% and the “Calli showing Type IV morphology (%)” value [2, 14] was 94.4%. For the same molecule, the “Number of calli Type I˜III” value [2, 14] was 1, the “Number of calli showing Type I morphology” value [2, 14] was 0 (0) and the “Number of calli showing Type II morphology” value [2, 14] was 0 (0). The “Number of calli showing Type III morphology” value [2, 14] was 1, the “Number of calli showing Type IV morphology” value [2, 14] was 17 and the “Calli Type I˜III … (%)” value [2, 15] was 5.3%. For the same molecule, the “Calli showing Type I morphology (%)” value [2, 15] was 0 (0) %, the “Calli showing Type II morphology (%)” value [2, 15] was 0 (0) % and the “Calli showing Type III morphology (%)” value [2, 15] was 5.3%. The “Calli showing Type IV morphology (%)” value [2, 15] was 94.7%, the “Number of calli Type I˜III” value [2, 15] was 1 and the “Number of calli showing Type I morphology” value [2, 15] was 0 (0). The “Number of calli showing Type II morphology” value [2, 15] was 0 (0), the “Number of calli showing Type III morphology” value [2, 15] was 1 and the “Number of calli showing Type IV morphology” value [2, 15] was 18. The “Calli Type I˜III … (%)” value [2, 16] was 0 (0) %, the “Calli showing Type I morphology (%)” value [2, 16] was 0 (0) % and the “Calli showing Type II morphology (%)” value [2, 16] was 0 (0) %. For the same molecule, the “Calli showing Type III morphology (%)” value [2, 16] was 0 (0) %, the “Calli showing Type IV morphology (%)” value [2, 16] was 100% and the “Number of calli Type I˜III” value [2, 16] was 0 (0). For the same molecule, the “Number of calli showing Type I morphology” value [2, 16] was 0 (0), the “Number of calli showing Type II morphology” value [2, 16] was 0 (0) and the “Number of calli showing Type III morphology” value [2, 16] was 0 (0). For the same molecule, the “Number of calli showing Type IV morphology” value [2, 16] was 38, the “Callus producing seeds (%)” value [3, 17] was 15.5% and the “Number of callus producing seeds” value [3, 17] was 47. For the same molecule, the “Callus producing seeds (%)” value [3, 18] was 10.7%, the “Number of callus producing seeds” value [3, 18] was 18 and the “Callus producing seeds (%)” value [3, 19] was 15.7%. The “Number of callus producing seeds” value [3, 19] was 19, the “Callus producing seeds (%)” value [3, 20] was 11.1% and the “Number of callus producing seeds” value [3, 20] was 38. For the same molecule, the “Fate of induced calli” value ([3]; MS media with higher than 4 mg/L of the hormone) was “the calli became brownish as they grew and eventually died”.
With `c1ccc(CNc2ncnc3nc[nH]c23)cc1` [6-benzylaminopurine] the “Callus producing seeds (%)” value [3, 21] was 0 (0) %, the “Number of callus producing seeds” value [3, 21] was 0 (0) and the “Callus producing seeds (%)” value [3, 22] was 0 (0) %. The “Number of callus producing seeds” value [3, 22] was 0 (0), the “Callus producing seeds (%)” value [3, 23] was 0 (0) % and the “Number of callus producing seeds” value [3, 23] was 0 (0). The “Callus producing seeds (%)” value [3, 24] was 0 (0) %, the “Number of callus producing seeds” value [3, 24] was 0 (0) and the “Number of shoots over 5 mm” value ([4]; growth regulator 1 mg/L) was 19. For the same molecule, the “Number of shoots per callus lump” value ([4]; growth regulator 1 mg/L) was 5.2, the “Number of shoots over 5 mm” value ([4]; growth regulator 4 mg/L) was 1 and the “Number of shoots per callus lump” value ([4]; growth regulator 4 mg/L) was 3.7. The “Number of calli with shoots” value ([5]; growth regulator 1 mg/L) was 17 and the “Number of calli with shoots” value ([5]; growth regulator 4 mg/L) was 9.
`O=C(CO)[C@@H](O)[C@H](O)[C@H](O)CO` [Fructose, fructose] was tested, and the “Calli with green shoot (%)” value [1, 12] was 17.3 ± 2.7%, the “Number of shoots per callus lump” value [1, 12] was 4.4 ± 0.8 and the “Shoots over 2 mm (%)” value [1, 12] was 12.6 ± 3.0%.
`O=C[C@H](O)[C@@H](O)[C@@H](O)[C@H](O)CO` [Galactose, galactose] was tested, and the “Calli with green shoot (%)” value [1, 12] was 0%, the “Number of shoots per callus lump” value [1, 12] was 0 and the “Shoots over 2 mm (%)” value [1, 12] was 0%.
For `c1coc(CNc2ncnc3[nH]cnc23)c1` [Kinetin, kinetin], the “Number of shoots over 5 mm” value ([4]; growth regulator 1 mg/L) was 0, the “Number of shoots per callus lump” value ([4]; growth regulator 1 mg/L) was 3.0 and the “Number of shoots over 5 mm” value ([4]; growth regulator 4 mg/L) was 0. For the same molecule, the “Number of shoots per callus lump” value ([4]; growth regulator 4 mg/L) was 1.7, the “Number of calli with shoots” value ([5]; growth regulator 1 mg/L) was 8 and the “Number of calli with shoots” value ([5]; growth regulator 4 mg/L) was 7.
In the case of `OC[C@H]1O[C@@](CO)(O[C@H]2O[C@H](CO)[C@@H](O)[C@H](O)[C@H]2O)[C@@H](O)[C@@H]1O` [Sucrose, sucrose], the “Calli with green shoot (%)” value [1, 12] is reported as 45.3 ± 9.3%, the “Number of shoots per callus lump” value [1, 12] is reported as 4.5 ± 0.1 and the “Shoots over 2 mm (%)” value [1, 12] is reported as 4.5 ± 0.2%.
For `O=C(Nc1ccccc1)Nc1cnns1` [TDZ, thidiazuron], the “Number of shoots over 5 mm” value ([4]; growth regulator 1 mg/L) was 14, the “Number of shoots per callus lump” value ([4]; growth regulator 1 mg/L) was 4.8 and the “Number of shoots over 5 mm” value ([4]; growth regulator 4 mg/L) was 1. For the same molecule, the “Number of shoots per callus lump” value ([4]; growth regulator 4 mg/L) was 4.1, the “Growth of regenerated plants” value ([4]; high concentration of TDZ) was “severely retarded” and the “Morphology of regenerated plants” value ([4]; high concentration of TDZ) was “plants with abnormal morphology were observed at a high frequency”. The “Plant regeneration and further growth” value ([4]; only the TDZ included) was “plant regeneration was observed, but the plants did not continue growing”, the “Number of calli with shoots” value ([5]; growth regulator 1 mg/L) was 17 and the “Number of calli with shoots” value ([5]; growth regulator 4 mg/L) was 10.
